Values of other authors, collected in patent publication US20100076037A1, “Methods of Treating Neuropathic Pain with Agonists of PPAR-gamma” (priority 2006, published 2010).
Read-outs that look alike come from different tables or passages of the source.

Key:
PPARalpha = target: T1, PPARalpha (Homo sapiens, UniProt Q07869); details: first value of the pair given as α/γ; read-out: EC50 for PPARalpha agonism; cited from earlier work
T1 sequence (Q07869 1-468): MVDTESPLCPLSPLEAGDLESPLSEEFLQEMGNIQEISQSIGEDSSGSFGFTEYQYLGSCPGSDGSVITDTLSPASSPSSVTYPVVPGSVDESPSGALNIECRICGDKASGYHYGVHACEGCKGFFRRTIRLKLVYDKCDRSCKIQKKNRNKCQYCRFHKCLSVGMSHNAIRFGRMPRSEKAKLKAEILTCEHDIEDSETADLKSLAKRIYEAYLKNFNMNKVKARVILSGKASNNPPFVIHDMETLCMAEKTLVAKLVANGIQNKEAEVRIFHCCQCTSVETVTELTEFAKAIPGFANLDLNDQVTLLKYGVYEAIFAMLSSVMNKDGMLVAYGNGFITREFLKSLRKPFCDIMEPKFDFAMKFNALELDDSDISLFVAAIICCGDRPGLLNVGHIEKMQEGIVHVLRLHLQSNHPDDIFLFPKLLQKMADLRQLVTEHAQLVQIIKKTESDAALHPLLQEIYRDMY

PPARγ = PPARγ (Homo sapiens, UniProt P37231); details: second value of the pair printed as α/γ; read-out: EC50 for PPAR γ agonism; cited from earlier work
db/db mice = details: cited from earlier work
ob/ob mice [1] = details: cited from earlier work
[2] = cited from earlier work
[3] = presence and absence of insulin; cited from earlier work
PPARalpha target protein = details: HepG2; cited from earlier work
human macrophages = details: 5 microM; cells exposed to high fatty acids and TGs; cited from earlier work
[4] = tested on: arterial smooth muscle cells (SMCs); details: 5 or 10 microM; cited from earlier work
cytochrome P450 (CYP)4A = details: 0.13 microg/kg; cited from earlier work
obese Zucker rats = details: cited from earlier work
[5] = tested on: human apoB/CETP double-transgenic mouse; details: tesaglitazar 1 microM/kg/day for 2 weeks; cited from earlier work
high-fat-fed Wistar rats = details: cited from earlier work
ob/ob mice [6] = details: cited from earlier work; remark: listed apart in the source
[7] = tested on: apoE*3 Leiden transgenic mice; details: cited from earlier work
P-glycoprotein = target: T2, P-glycoprotein (Homo sapiens, UniProt P08183); details: cited from earlier work
T2 construct: host or cells: Caco2 and MDCK-MDR1 monolayers (tie to the P-gp statement is grammatically loose)

[8] = tested on: recombinant human CYPs (CYP1A2, CYP2A6, CYP2C8, CYP2C9, CYP2C19, CYP2D6 and CYP3A4); details: 0.09 to 200 microM; cited from earlier work
[9] = cited from earlier work; remark: listed apart in the source
[10] = 1 mg, cited from earlier work
[11] = healthy males; cited from earlier work
type 2 diabetic patients = details: cited from earlier work; for decrease of mean fasting plasma glucose, placebo-corrected: 12 weeks
[12] = tested on: non-diabetic but insulin-resistant patients; details: cited from earlier work; for reduction of prevalence of metabolic syndrome: NCEP ATPIII criteria
diabetic patients = details: human, in vivo; cited from earlier work
mPPARalpha = mPPARalpha (Mus musculus, UniProt P23204); details: read-out: EC50 reporter gene assay, U2 OS cells; cited from earlier work
[13] = tested on: multidrug resistance protein 2; details: cited from earlier work
[14] = dose for 25% reduction in fasting plasma glucose, insulin and serum TG

Sequence of PPARγ (P37231 whole entry, species assumed): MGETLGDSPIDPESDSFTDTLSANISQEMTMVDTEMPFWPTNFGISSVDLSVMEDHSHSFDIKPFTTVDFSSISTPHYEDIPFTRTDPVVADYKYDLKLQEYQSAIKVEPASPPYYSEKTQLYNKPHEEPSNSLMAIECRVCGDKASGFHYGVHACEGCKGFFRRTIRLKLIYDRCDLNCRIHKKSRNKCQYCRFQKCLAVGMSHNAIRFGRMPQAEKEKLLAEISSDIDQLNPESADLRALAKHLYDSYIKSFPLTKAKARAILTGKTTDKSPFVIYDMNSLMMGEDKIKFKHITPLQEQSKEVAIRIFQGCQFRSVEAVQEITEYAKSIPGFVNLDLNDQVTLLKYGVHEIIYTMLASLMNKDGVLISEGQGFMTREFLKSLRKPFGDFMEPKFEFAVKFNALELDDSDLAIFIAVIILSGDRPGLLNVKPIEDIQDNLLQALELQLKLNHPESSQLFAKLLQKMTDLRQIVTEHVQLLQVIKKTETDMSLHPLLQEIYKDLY
T2 sequence (P08183 whole entry): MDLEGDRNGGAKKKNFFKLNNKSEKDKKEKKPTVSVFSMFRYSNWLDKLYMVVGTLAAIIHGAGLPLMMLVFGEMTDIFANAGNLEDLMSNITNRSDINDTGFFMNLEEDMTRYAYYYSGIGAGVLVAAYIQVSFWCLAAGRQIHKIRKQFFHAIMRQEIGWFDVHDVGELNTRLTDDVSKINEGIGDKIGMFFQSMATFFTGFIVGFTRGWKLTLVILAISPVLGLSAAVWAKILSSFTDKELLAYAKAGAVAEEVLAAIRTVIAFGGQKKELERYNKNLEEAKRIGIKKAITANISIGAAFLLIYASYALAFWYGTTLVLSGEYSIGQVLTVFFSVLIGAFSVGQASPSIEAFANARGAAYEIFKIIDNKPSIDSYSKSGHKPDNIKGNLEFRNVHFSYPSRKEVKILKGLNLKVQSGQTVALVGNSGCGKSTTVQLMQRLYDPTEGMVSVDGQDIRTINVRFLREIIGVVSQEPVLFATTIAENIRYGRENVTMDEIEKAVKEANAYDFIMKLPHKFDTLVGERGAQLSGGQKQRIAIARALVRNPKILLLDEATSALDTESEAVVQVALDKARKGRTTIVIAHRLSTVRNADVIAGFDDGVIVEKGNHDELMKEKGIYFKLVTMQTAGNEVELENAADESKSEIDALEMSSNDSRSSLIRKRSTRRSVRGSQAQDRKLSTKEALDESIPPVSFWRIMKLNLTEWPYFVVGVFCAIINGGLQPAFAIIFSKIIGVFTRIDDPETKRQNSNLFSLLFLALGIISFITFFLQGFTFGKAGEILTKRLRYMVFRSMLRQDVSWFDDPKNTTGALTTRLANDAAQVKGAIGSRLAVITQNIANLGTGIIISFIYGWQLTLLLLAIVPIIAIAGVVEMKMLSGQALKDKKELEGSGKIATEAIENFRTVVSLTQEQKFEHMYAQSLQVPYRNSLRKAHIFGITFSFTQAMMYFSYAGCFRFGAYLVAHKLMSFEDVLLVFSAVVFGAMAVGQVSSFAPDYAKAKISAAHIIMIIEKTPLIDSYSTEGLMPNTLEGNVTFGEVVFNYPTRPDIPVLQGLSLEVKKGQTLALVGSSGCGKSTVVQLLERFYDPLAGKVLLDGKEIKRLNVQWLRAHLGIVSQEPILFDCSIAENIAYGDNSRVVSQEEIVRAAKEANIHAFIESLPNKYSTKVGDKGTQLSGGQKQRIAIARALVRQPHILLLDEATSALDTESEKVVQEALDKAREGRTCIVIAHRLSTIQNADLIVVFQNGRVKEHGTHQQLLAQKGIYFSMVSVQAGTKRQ
Sequence of mPPARalpha (P23204 whole entry): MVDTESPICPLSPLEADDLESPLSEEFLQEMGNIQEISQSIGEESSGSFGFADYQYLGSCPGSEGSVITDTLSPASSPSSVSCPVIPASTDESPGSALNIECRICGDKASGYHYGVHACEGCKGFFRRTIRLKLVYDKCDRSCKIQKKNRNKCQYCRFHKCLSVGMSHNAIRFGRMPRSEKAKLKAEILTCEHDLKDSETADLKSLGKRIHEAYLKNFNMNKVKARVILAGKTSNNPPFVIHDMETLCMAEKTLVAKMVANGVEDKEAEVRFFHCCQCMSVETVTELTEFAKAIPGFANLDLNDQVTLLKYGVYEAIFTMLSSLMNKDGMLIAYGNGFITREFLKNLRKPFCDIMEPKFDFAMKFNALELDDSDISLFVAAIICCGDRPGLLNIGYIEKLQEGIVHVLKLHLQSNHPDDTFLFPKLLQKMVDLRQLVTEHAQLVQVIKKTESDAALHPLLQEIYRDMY

SMILES: O=C1NC(=O)C(Cc2ccc3cc(OCc4ccccc4F)ccc3c2)S1 (stereo not shown) [MCC-555]
- EC50 (PPARalpha): 3 µM
- EC50 (PPARγ): 0.1 µM

SMILES: Cc1oc(-c2ccccc2)nc1CCOc1ccc(CC2SC(=O)NC2=O)c2sccc12 (stereo not shown) [edaglitazone]
- lowering of free fatty acid levels (db/db mice; 1 mg/kg): 16%
- reduction in serum triglyceride levels (db/db mice; 1 mg/kg): 14%
- lowering of free fatty acid levels (db/db mice; 10 mg/kg): 70%
- reduction in serum triglyceride levels (db/db mice; 10-mg·kg dose): 70%
- lowering of non-starved blood glucose (db/db mice; 25-mg dose, 12 days): 52%
- hypoglycemia (db/db mice; chronic treatment with 100 mg/kg): did not result in hypoglycemia
- reduction of AUC(glucose) (ob/ob mice [1]; 1 mg/kg, 14 days): 44%
- reduction in non-starved blood glucose concentration (ob/ob mice [1]; 0.25 to 10 mg/kg, 12 days): 29%
- serum insulin levels (ob/ob mice [1]; all doses): dose-dependently decreased
- reduction in non-starved blood glucose concentration (ob/ob mice [1]; higher doses): 45%
- accumulation ([2]; once-daily dosing over 6 weeks): did not accumulate
- tolerability ([2]; single ascending dose): very well tolerated
- time to plasma peak levels after dosing ([2]; single doses 1-160 mg, healthy males): 2 to 4 h
- rate of glucose oxidation [3]: increased

SMILES: CCO[C@@H](Cc1ccc(OCCc2ccc(OS(C)(=O)=O)cc2)cc1)C(=O)O [tesaglitazar, (S)-2-ethoxy-3-[4-(2-{4-methanesulfonyloxyphenyl}ethoxy)phenyl]propanoic acid]
- potency relative to bezafibrate (PPARalpha target protein): approximately 10 fold
- cholesterol efflux, % of the control level (human macrophages): 156%
- decrease of affinity of human LDL for unbound GAGs [4]: 3- to 4 fold
- linoleate-induced production of LDL-binding GAGs [4]: abolished
- upregulation of CYP4A relative to controls (cytochrome P450 (CYP)4A): 15 fold
- free fatty acid utilization in adipose tissue, skeletal muscle, liver and heart (obese Zucker rats; 3 micromol/kg/day for 3 weeks, insulin level-clamped): reduced
- glucose utilization in muscle and fat (obese Zucker rats; 3 micromol/kg/day for 3 weeks): increased
- measures of whole-body insulin sensitivity (obese Zucker rats; 3 micromol/kg/day orally, 3 or 4 weeks): consistently improved or normalized
- normalization of total insulin (obese Zucker rats; basal conditions, toward lean control): 76%
- normalization of C-peptide (obese Zucker rats; basal conditions): 61%
- normalization of TGs (obese Zucker rats; basal conditions): 67%
- normalization of free fatty acids (obese Zucker rats; basal conditions): 15%
- glucose infusion rate higher than required in lean controls (obese Zucker rats; clamp conditions): 13%
- increase of rate of glucose infusion vs untreated rats (obese Zucker rats; clamp conditions): 7.6 fold
- normalization of C-peptide (obese Zucker rats; clamp conditions): 63%
- normalization of TGs (obese Zucker rats; clamp conditions): 72%
- normalization of free fatty acids (obese Zucker rats; clamp conditions): 70%
- normalization of total insulin (obese Zucker rats; clamp conditions): 82%
- VLDL apolipoprotein (apo)CIII content (obese Zucker rats; fasted obese Zucker rats): reduced
- increase of plasma TG clearance (obese Zucker rats; fasted obese Zucker rats): 490%
- reduction of rate of hepatic TG production (obese Zucker rats; fasted obese Zucker rats): 47%
- normalization of postprandial excursion in plasma glucose (obese Zucker rats; glucose/TG (1.7/2.0 g/kg) test meal): 80%
- normalization of postprandial excursion in TGs (obese Zucker rats; glucose/TG test meal): 92%
- normalization of postprandial excursion in free fatty acids (obese Zucker rats; glucose/TG test meal): 75%
- normalization of postprandial excursion in insulin (obese Zucker rats; glucose/TG test meal): 85%
- plasma TGs, apoB100 and plasma CETP activity [5]: reduced
- basal TG levels (high-fat-fed Wistar rats; 1 micromol/kg/day for 1 week): reduced
- increase of glucose infusion rate during clamping (high-fat-fed Wistar rats; 1 micromol/kg/day for 1 week): 29%
- reduction of basal plasma insulin levels (high-fat-fed Wistar rats; 1 micromol/kg/day for 1 week): 36%
- increase of uptake of non-esterified fatty acids in white adipose tissue (high-fat-fed Wistar rats; 1 micromol/kg/day for 3 weeks, basal conditions): 52%
- hyperglycemia (ob/ob mice [6]; 1 micromol/kg/day for 1 week): normalized
- potency relative to pioglitazone (ob/ob mice [6]; [14]): 250 fold
- potency relative to rosiglitazone (ob/ob mice [6]; [14]): 7 fold
- reduction of plasma cholesterol levels ([7]; 0.5 microg/kg of diet, low- or high-fat diets): approximately 21.5%
- reduction of TG levels ([7]; 0.5 microg/kg of diet): approximately 40%
- reduction of cross-sectional area of atheromic lesions in the aortic root ([7]; high-fat fed, 28 weeks): 92%
- reduction of cross-sectional area of atheromic lesions in the aortic root ([7]; low-fat fed, 16 weeks): 65%
- substrate of P-glycoprotein (P-glycoprotein): not substrates of P-glycoprotein
- effect on activity of CYP drug metabolizing enzymes [8]: no effect
- AUC ([9]; 1 mg intravenous): 16.2 micromolxh/l
- AUC ([9]; 1 mg oral): 16.1 micromolxh/l
- adverse events ([9]; 1 mg po or iv, healthy volunteers): no serious adverse events
- oral bioavailability ([9]; 1 mg): ~100%
- clearance (Cl) ([9]; in vivo): 0.16 L/h
- elimination half-life ([9]; in vivo): ~45 h
- protein-bound ([9]; in vivo): 99.9%
- volume of distribution at steady state (Vdss) ([9]; in vivo): 9.1 L
- Cmax ([9]; single 1-mg oral dose): 610 nM
- median Tmax ([9]; single 1-mg oral dose): ~0.5 h
- Tmax ([10]; fasted state): 1 h
- Tmax ([10]; fed state): 2.5 h
- pharmacokinetic interactions with glibenclamide or metformin [11]: No pharmacokinetic interactions
- decrease of mean fasting plasma glucose, placebo-corrected (type 2 diabetic patients; 0.1 mg once daily): 8.9 mg/dL
- decrease of mean fasting plasma glucose, placebo-corrected (type 2 diabetic patients; 0.5 mg): 30.3 mg/dL
- decrease of mean fasting plasma glucose, placebo-corrected (type 2 diabetic patients; 1.0 mg): 41.1 mg/dL
- greatest increase in serum HDL-cholesterol (type 2 diabetic patients; 1 mg): 15.0%
- decrease of mean fasting plasma glucose, placebo-corrected (type 2 diabetic patients; 2.0 mg): 55.0 mg/dL
- decrease of mean fasting plasma glucose, placebo-corrected (type 2 diabetic patients; 3.0 mg): 60.9 mg/dL
- greatest reduction of LDL-cholesterol (type 2 diabetic patients; 3 mg): 17.3%
- greatest reduction of VLDL-cholesterol (type 2 diabetic patients; 3 mg): 52.5%
- maximum reduction in free fatty acids (type 2 diabetic patients; 2-mg dose): 36.7%
- maximum reduction in serum TGs (type 2 diabetic patients; 2-mg dose): 41.0%
- mean increase in serum creatinine ([12]; 0.1 mg): 1 µmol/L
- patients with adverse events ([12]; 0.1 mg): 65%
- reduction in mean hemoglobin level ([12]; 0.1 mg): 0.16 mmol/L
- patients with adverse events ([12]; 0.25 mg): 51%
- reduction of prevalence of metabolic syndrome ([12]; 0.5 mg): 49%
- fall in prevalence of impaired fasting glucose ([12]; 0.5 mg): 23%
- patients with adverse events ([12]; 0.5 mg): 67%
- mean reduction in fasting serum TGs, placebo-corrected ([12]; 1 mg, 12 weeks): 37%
- reduction of prevalence of metabolic syndrome ([12]; 1.0 mg): 45%
- reduction of AUC for plasma free fatty acids ([12]; 1 mg, after lipid-rich meal): 29%
- reduction of AUC for plasma insulin ([12]; 1 mg, after lipid-rich meal): 31%
- reduction of AUC for serum TGs ([12]; 1 mg, after lipid-rich meal): 41%
- reduction of AUC for serum glycerol ([12]; 1 mg, after lipid-rich meal): 34%
- reduction of plasma glucose level at 2 h ([12]; 1 mg, after lipid-rich meal): 27%
- increase in serum HDL-cholesterol ([12]; 1 mg): 16%
- mean reduction in fasting insulin ([12]; 1 mg): 35%
- mean reduction in non-HDL-cholesterol ([12]; 1 mg): 15%
- mean reduction in non-esterified fatty acids ([12]; 1 mg): 40%
- mean reduction in plasma glucose concentration ([12]; 1 mg): 0.47 mmol/L
- reduction in mean hemoglobin level ([12]; 1 mg): 0.55 mmol/L
- fall in prevalence of impaired fasting glucose ([12]; 1.0 mg): 59%
- mean increase in serum creatinine ([12]; 1.0 mg): 8 µmol/L
- patients with adverse events ([12]; 1.0 mg): 60%
- increase in weight ([12]; 0.5 and 1 mg, 12 weeks): approximately 1 kg
- increase of ApoA-1 ([12]; 1-mg dose): 4%
- reduction of ApoB ([12]; 1-mg dose): 12%
- reduction of ApoB/ApoA-1 ratio ([12]; 1-mg dose): 16%
- reduction of ApoCIII ([12]; 1-mg dose): 25%
- rates of edema (diabetic patients): 4.2 to 6.8%
- EC50 (mPPARalpha): 32 µM
- transport in Caco2 and MDCK-MDR1 monolayers [13]: apparently transported by multidrug resistance protein 2
